Measured values taken from patent publication US20050027003A1, “Methods of therapeutic treatment using retinoids with reduced side effects” (Allergan, Inc., priority 2003, published 2005).

What was measured:
Type in all cases: in vivo, human
[1] = tested on: patients having nodulocystic acne; experiment: Example 5: two placebo-controlled dose-ranging safety studies in nodulocystic acne; conditions: for depression, patients: placebo 2%; for emotional lability, patients: placebo 4%
Protocol: Two placebo-controlled dose-ranging studies are conducted to evaluate the safety of oral tazarotene in patients having nodulocystic acne. In the first study, patients receive orally administered tazarotene at daily doses of 0.4 mg to 2.8 mg in 96 (71+25) patients (12 weeks treatment plus 12 weeks post-treatment). In the second study, daily doses of 0.75 mg to 6 mg tazarotene are administered to 181 patients (24 weeks treatment plus 12 weeks post-treatment).

[2] = tested on: patients with psoriasis; experiment: Example 2: Phase 3 studies of oral tazarotene for psoriasis, adverse events (Table 1); conditions: Taz 4.5 mg
Protocol: A series of Phase 3 studies are conducted on orally administered tazarotene for the treatment of psoriasis. Adverse events (side effects) are monitored. In addition, published data for acitretin's side effects are also considered.

[3] = tested on: patients with moderate to very severe plaque psoriasis; experiment: Example 4: open-label extension study of oral tazarotene in plaque psoriasis; conditions: 4.5 mg once daily, 12 weeks, across both groups
[4] = Study 3, treated with Tazarotene for 3 months (N = 220)
[5] = Study 3, treated with Tazarotene for 6 months (N = 92)
[6] = combined data from Studies 1 and 2 (N = 348)

Structure (SMILES): CCOC(=O)c1ccc(C#Cc2ccc3c(c2)C(C)(C)CCS3)nc1 [tazarotene]
- changes in urinalysis, chemistry, or hematology measures (incl. liver function tests, triglycerides, total cholesterol, HDL cholesterol) ([1]; 0.4 mg to 6 mg daily): no consistent dose-related clinically significant changes
- ligament calcification, osteophyte formation, changes in serum bone alkaline phosphatase, serum amino terminal telopeptides, bone density ([1]; 0.4 mg to 6 mg daily): not associated with any clinically significant
- depression, patients ([1]; 3 mg group (2 mild, 1 severe)): 8%
- emotional lability, patients ([1]; 3 mg group): 3%
- depression, patients ([1]; 6 mg group): none
- emotional lability, patients ([1]; 6 mg group): 14%
- dry skin, severe ([1]; all groups): No patient
- Adverse event: Alopecia [2, 4]: 1 (0.5) number (%) of patients
- Adverse event: Arthralgia [2, 4]: 28 (12.7) number (%) of patients
- Adverse event: Atrophy of skin [2, 4]: 0 (0.0) number (%) of patients
- Adverse event: Back pain [2, 4]: 7 (3.2) number (%) of patients
- Adverse event: Cheilitis [2, 4]: 149 (67.7) number (%) of patients
- Adverse event: Dry Skin [2, 4]: 47 (21.4) number (%) of patients
- Adverse event: Dry mouth/Oral dryness [2, 4]: 11 (5.0) number (%) of patients
- Adverse event: Epistaxis [2, 4]: 1 (0.5) number (%) of patients
- Adverse event: Erythematous rash/Erythema [2, 4]: 0 (0.0) number (%) of patients
- Adverse event: Hyperesthesia [2, 4]: 0 (0.0) number (%) of patients
- Adverse event: Nail Disorder [2, 4]: 1 (0.5) number (%) of patients
- Adverse event: Paresthesia [2, 4]: 3 (1.4) number (%) of patients
- Adverse event: Paronychia/Nail disorder [2, 4]: 1 (0.5) number (%) of patients
- Adverse event: Pruritus [2, 4]: 11 (5.0) number (%) of patients
- Adverse event: Rhinitis [2, 4]: 0 (0.0) number (%) of patients
- Adverse event: Rigors/Chills [2, 4]: 1 (0.5) number (%) of patients
- Adverse event: Skin peeling/Desquamation [2, 4]: 3 (1.4) number (%) of patients
- Adverse event: Sticky skin/Skin disorder [2, 4]: 0 (0.0) number (%) of patients
- Adverse event: Xerophthalmia/Eye disorder [2, 4]: 3 (1.4) number (%) of patients
- Adverse event: Alopecia [2, 5]: 5 (5.4) number (%) of patients
- Adverse event: Arthralgia [2, 5]: 30 (32.6) number (%) of patients
- Adverse event: Atrophy of skin [2, 5]: 0 (0.0) number (%) of patients
- Adverse event: Back pain [2, 5]: 10 (10.9) number (%) of patients
- Adverse event: Cheilitis [2, 5]: 65 (70.7) number (%) of patients
- Adverse event: Dry Skin [2, 5]: 24 (26.1) number (%) of patients
- Adverse event: Dry mouth/Oral dryness [2, 5]: 2 (2.2) number (%) of patients
- Adverse event: Epistaxis [2, 5]: 0 (0.0) number (%) of patients
- Adverse event: Erythematous rash/Erythema [2, 5]: 0 (0.0) number (%) of patients
- Adverse event: Hyperesthesia [2, 5]: 0 (0.0) number (%) of patients
- Adverse event: Nail Disorder [2, 5]: 1 (1.1) number (%) of patients
- Adverse event: Paresthesia [2, 5]: 1 (1.1) number (%) of patients
- Adverse event: Paronychia/Nail disorder [2, 5]: 1 (1.1) number (%) of patients
- Adverse event: Pruritus [2, 5]: 3 (3.3) number (%) of patients
- Adverse event: Rhinitis [2, 5]: 0 (0.0) number (%) of patients
- Adverse event: Rigors/Chills [2, 5]: 1 (1.1) number (%) of patients
- Adverse event: Skin peeling/Desquamation [2, 5]: 1 (1.1) number (%) of patients
- Adverse event: Sticky skin/Skin disorder [2, 5]: 0 (0.0) number (%) of patients
- Adverse event: Xerophthalmia/Eye disorder [2, 5]: 1 (1.1) number (%) of patients
- Adverse event: Alopecia [2, 6]: 1 (0.3) number (%) of patients
- Adverse event: Arthralgia [2, 6]: 60 (17.2) number (%) of patients
- Adverse event: Atrophy of skin [2, 6]: 0 (0.0) number (%) of patients
- Adverse event: Back pain [2, 6]: 16 (4.6) number (%) of patients
- Adverse event: Cheilitis [2, 6]: 228 (65.5) number (%) of patients
- Adverse event: Dry Skin [2, 6]: 82 (23.6) number (%) of patients
- Adverse event: Dry mouth/Oral dryness [2, 6]: 11 (3.2) number (%) of patients
- Adverse event: Epistaxis [2, 6]: 2 (0.6) number (%) of patients
- Adverse event: Erythematous rash/Erythema [2, 6]: 2 (0.6) number (%) of patients
- Adverse event: Hyperesthesia [2, 6]: 0 (0.0) number (%) of patients
- Adverse event: Nail Disorder [2, 6]: 2 (0.6) number (%) of patients
- Adverse event: Paresthesia [2, 6]: 7 (2.0) number (%) of patients
- Adverse event: Paronychia/Nail disorder [2, 6]: 2 (0.6) number (%) of patients
- Adverse event: Pruritus [2, 6]: 21 (6.0) number (%) of patients
- Adverse event: Rhinitis [2, 6]: 8 (2.3) number (%) of patients
- Adverse event: Rigors/Chills [2, 6]: 9 (2.6) number (%) of patients
- Adverse event: Skin peeling/Desquamation [2, 6]: 3 (0.9) number (%) of patients
- Adverse event: Sticky skin/Skin disorder [2, 6]: 1 (0.3) number (%) of patients
- Adverse event: Xerophthalmia/Eye disorder [2, 6]: 8 (2.3) number (%) of patients
- incidence of dry skin [3]: 25%
- incidence of headache [3]: 11%
- incidence of infection [3]: 10%
